Experimental data reported in article PMC3653620 (Investigative radiology, 2012).
Entries after “also recorded” stand apart in the source; their conditions may differ. Where two headings read alike, the source gives them in different places. Where a SMILES comes first, the peptide text is derived from it. Bridges are numbered along the chain shown (N, C = ends). [ ]: non-standard residue; d: D form. The star is where a group is joined. X1 = O=C(O)CN1CCN(CC(=O)O)CCN(C(CCC(=O)NCC[C@H](NC(=O)CCC(C(=O)O)N2CCN(CC(=O)O)CCN(CC(=O)O)CCN(CC(=O)O)CC2)C(=O)NCc2ccc(CN*)cc2)C(=O)O)CCN(CC(=O)O)CC1; DOTAGA = O=C(O)CN1CCN(CC(=O)O)CCN(C(CCC(=O)*)C(=O)O)CCN(CC(=O)O)CC1; Tyr(3-Cl) = N[C@@H](Cc1ccc(O)c(Cl)c1)C(=O)O; Hyp = O=C(O)[C@@H]1C[C@@H](O)CN1; Dab = NCC[C@H](N)C(=O)O

Assays:
[1] = tested on: tumor periphery (breast cancer xenograft, BT-20); assay: Contrast agent washout from tumor periphery, T1-weighted MRI at 9.4T; assay type: in vivo, nude mice; human adenocarcinoma BT-20 cell line; settings: for retention in the tumor periphery / washout, in words: Gd-DTPA 200, EP-2104R or CLP 20 μmol/kg i.v.; for t1/2 in the tumor periphery: CNR vs time
[2] = tested on: tumor core (breast cancer xenograft, BT-20); assay: Contrast agent washout from tumor core, T1-weighted MRI at 9.4T; assay type: in vivo, nude mice; human adenocarcinoma BT-20 cell line
[3] = cited from earlier work; for relaxivity at 9.4T: per molecule
[4] = tested on: blood plasma proteins; settings: cited from earlier work
[5] = cited from earlier work
[6] = tested on: thrombi in the heart chambers, arteries or veins; settings: animal models and clinical trials; ref [32]-[43]; cited from earlier work

Compound: CC[C@H](C)[C@H](NC(=O)[C@H](Cc1ccc(O)cc1)NC(=O)[C@@H]1CSSC[C@H](NC(=O)[C@@H](CCC(=O)O)NC(=O)[C@H](Cc2ccc(O)cc2)NC(=O)[C@H](CCNC(=O)CCC(C(=O)O)N2CCN(CC(=O)O)CCN(CC(=O)O)CCN(CC(=O)O)CC2)NC(=O)CCC(C(=O)O)N2CCN(CC(=O)O)CCN(CC(=O)O)CCN(CC(=O)O)CC2)C(=O)N2C[C@H](O)C[C@H]2C(=O)N[C@@H](Cc2ccc(O)c(Cl)c2)C(=O)NCC(=O)N[C@@H](CC(C)C)C(=O)N1)C(=O)N[C@@H](CCC(N)=O)C(=O)NCc1ccc(CNC(=O)[C@H](CCNC(=O)CCC(C(=O)O)N2CCN(CC(=O)O)CCN(CC(=O)O)CCN(CC(=O)O)CC2)NC(=O)CCC(C(=O)O)N2CCN(CC(=O)O)CCN(CC(=O)O)CCN(CC(=O)O)CC2)cc1 (stereo partly drawn) [EP-2104R] ({DOTAGA}-[Dab](DOTAGA)Y[dE]C[Hyp][Tyr(3-Cl)]GLCYIQ-X1; disulfide 4-9; N-terminus and C-terminus assumed)
- retention in the tumor periphery / washout, in words ([1]; 9.4T): stays in the tumor periphery much longer than Gd-DTPA or CLP; also recorded: significantly longer retained in the tumor periphery; also recorded: retained significantly longer in the tumor periphery than either Gd-DTPA or CLP
- duration of persistent enhancement of the tumor periphery ([1]; after EP-2104R injection, 20 μmol/kg i.v., FLASH images, 9.4T): ≥ 90 min
- variability of washout from the tumor periphery ([1]; in vivo): varied several fold across this ROI
- washout from the tumor periphery, % slower than Gd-DTPA ([1]; in vivo): 190±75%
- washout from the tumor periphery, fold slower than CLP ([1]; in vivo): 5 fold
- Half-life in the tumor periphery (mean ± SEM) ([1]; in vivo, iv): 103 ± 18 min
- t1/2 in the tumor periphery, Mean (St Dev) ([1]; in vivo, iv): 103 (53) min
- enhancement of tumor ([2]; EP-2104R 20 μmol/kg i.v., transient, tumor core and periphery, 9.4T): transiently enhanced both the tumor core and periphery
- washout from the tumor core, % slower than Gd-DTPA ([2]; in vivo): 20%
- t1/2, washout from the tumor core ([2]; mouse, in vivo, iv): 45 ± 9 min
- relaxivity at 9.4T, per Gd ([3]; 9.4T, per Gd, ref [48],[49]): 6.4 mM⁻¹ s⁻¹
- relaxivity at 9.4T ([3]; 9.4T, ref [48],[49]): 25.6 mM⁻¹ s⁻¹
- relaxivity of fibrin-bound probe at 9.4T vs clinical field strengths ([3]; fibrin-bound, 9.4T vs clinical field strengths, ref [22],[48]): much lower at this field compared to clinical field strengths
- affinity for blood plasma proteins [4]: only very low affinity for blood plasma proteins
- excretion ([5]; in vivo): exclusive renal excretion
- identification of thrombi [6]: efficacious in identifying thrombi in the heart chambers, arteries or veins

Compound: CNC[C@H](O)[C@@H](O)[C@H](O)[C@H](O)CO.CNC[C@H](O)[C@@H](O)[C@H](O)[C@H](O)CO.O=C([O-])CN(CCN(CC(=O)[O-])CC(=O)O)CCN(CC(=O)[O-])CC(=O)O.[Gd+3] [Gd-DTPA, Gadopentetate dimeglumine]
- retention in the tumor periphery / washout, in words ([1]; 9.4T): not retained in the tumor periphery; also recorded: significantly faster washout than EP-2104R
- half-life in tumor periphery compared with EP-2104R ([1]; all animals, p<0.05 for both): significantly shorter
- variability of washout from the tumor periphery ([1]; among all the mice, or across the tumor periphery ROI in some mice): very similar among all the mice
- t1/2 in the tumor periphery ([1]; animal 3, Gd-DTPA 200 μmol/kg then EP-2104R 20 μmol/kg i.v., 9.4T): 27 min
- t1/2 in the tumor periphery ([1]; animal 4, Gd-DTPA 200 μmol/kg then EP-2104R 20 μmol/kg i.v., 9.4T): 38 min
- t1/2 in the tumor periphery ([1]; animal 5, Gd-DTPA 200 μmol/kg then EP-2104R 20 μmol/kg i.v., 9.4T): 26 min
- t1/2 in the tumor periphery ([1]; animal 6, Gd-DTPA 200 μmol/kg then EP-2104R 20 μmol/kg i.v., 9.4T): 23 min
- t1/2 in the tumor periphery ([1]; animal 7, Gd-DTPA 200 μmol/kg then EP-2104R 20 μmol/kg i.v., 9.4T): 38 min
- t1/2 in the tumor periphery ([1]; animal 8, Gd-DTPA 200 μmol/kg then EP-2104R 20 μmol/kg i.v., 9.4T): 41 min
- t1/2 in the tumor periphery ([1]; animal 9, Gd-DTPA 200 μmol/kg then CLP 20 μmol/kg i.v., 9.4T): 29 min
- t1/2 in the tumor periphery ([1]; animal 10, Gd-DTPA 200 μmol/kg then CLP 20 μmol/kg i.v., 9.4T): 20 min
- t1/2 in the tumor periphery ([1]; animal 11, Gd-DTPA 200 μmol/kg then CLP 20 μmol/kg i.v., 9.4T): 27 min
- t1/2, washout from the tumor core ([2]; 3 mice, Gd-DTPA 200 μmol/kg followed by CLP 20 μmol/kg i.v., ±SEM, p=0.35): 28 ± 5 min
- t1/2, washout from the tumor core ([2]; 6 mice, Gd-DTPA 200 μmol/kg followed by EP-2104R 20 μmol/kg i.v., ±SEM, p=0.17): 38 ± 9 min
- relaxivity at 9.4T ([3]; 9.4T, ref [48],[49]): 3.7 mM⁻¹ s⁻¹
- affinity for blood plasma proteins ([4]; ref [22],[33]): only very low affinity for blood plasma proteins
- excretion ([5]; ref [22],[33]): exclusive renal excretion
